Experimental data from ChEMBL document CHEMBL1130991, “Synthesis and antibacterial activity of [6,5,5] and [6,6,5] tricyclic fused oxazolidinones” (Bioorg Med Chem Lett, 1998).
Converted amounts (≈) assume the structure as drawn.

Legend:
Staphylococcus aureus [1] = assay: Antibacterial activity against Staphylococcus aureus UC9213; type: functional
Streptococcus pneumoniae = assay: Antibacterial activity against Streptococcus pneumoniae UC9912; type: functional
Bacteroides fragilis [2] = assay: Compound was evaluated for antibacterial activity against Bacteroides fragilis UC12199 UC (Upjohn Culture); type: functional
[3] = system: Staphylococcus epidermidis; assay: Antibacterial activity against Staphylococcus epidermidis UC30031UC; type: functional
Staphylococcus aureus [4] = assay: Antibacterial activity against Staphylococcus aureus UC12673; type: functional
Enterococcus faecalis = assay: Antibacterial activity against Enterococcus faecalis UC9217; type: functional
Mus musculus [5] = assay: (§1) Effective dose required to inhibit Staphylococcus aureus UC9213 in mice subjected to a lethal systemic infection (when administered orally); type: functional; conditions: po
Staphylococcus aureus [6] = assay: Effective dose required to inhibit Staphylococcus aureus UC9271 in mice subjected to a lethal systemic infection (when administered orally); type: functional; conditions: po
Bacteroides fragilis [7] = assay: Antibacterial activity against Bacteroides fragilis UC12199; type: functional
Staphylococcus aureus [8] = assay: as §1; type: functional; conditions: po
Mus musculus [9] = assay: as §1; type: functional, organism-based
Mus musculus [10] = assay: Compound was evaluated for antibacterial activity against Staphylococcus aureus UC9213 ((methicillin susceptible) in mice administered orally; type: functional; conditions: po

Row | SMILES | MIC (Staphylococcus aureus [1]) | MIC (Streptococcus pneumoniae) | MIC (Bacteroides fragilis [2]) | MIC [3] | MIC (Staphylococcus aureus [4]) | MIC (Enterococcus faecalis) | MIC (Bacteroides fragilis [7]) | ED50 (Mus musculus [5]) | ED50 (Staphylococcus aureus [6]) | ED50 (Staphylococcus aureus [8]) | EC50 (Mus musculus [9]) | ED50 (Mus musculus [10])
1 | CC(=O)NC[C@@H]1OC(=O)N2c3ccc(-c4cccnc4)cc3C[C@@H]12 | 4 µg/mL (≈ 12.4 µM) |  |  | 2 µg/mL (≈ 6.19 µM) | 2 µg/mL (≈ 6.19 µM) | 2 µg/mL (≈ 6.19 µM) | 2 µg/mL (≈ 6.19 µM) | 9.4 mg/kg | 4.4 mg/kg |  |  | 
2 | CC(=O)NC[C@H]1CN(c2ccc(C(C)=O)cc2)C(=O)O1 (racemic) [DUP-721] | 2 µg/mL (≈ 7.24 µM) | 2 µg/mL (≈ 7.24 µM) |  | 4 µg/mL (≈ 14.5 µM) | 4 µg/mL (≈ 14.5 µM) | 8 µg/mL (≈ 29 µM) | 8 µg/mL (≈ 29 µM) |  | 18.1 mg/kg | 9.4 mg/kg |  | 
3 | CC(=O)NC[C@@H]1OC(=O)N2c3ccc(-c4cccnc4)cc3CC[C@H]12 | > 64 µg/mL | > 64 µg/mL |  | > 64 µg/mL | > 64 µg/mL | > 64 µg/mL | > 32 µg/mL |  |  |  |  | 
4 | CC(=O)NC[C@@H]1OC(=O)N2c3ccc(-c4cccnc4)cc3C[C@@H]12.Cl | 2 µg/mL | 0.5 µg/mL |  | 1 µg/mL | 2 µg/mL | 2 µg/mL | 4 µg/mL | 6 mg/kg |  |  |  | 
5 | CC(=O)NC[C@H]1CN(c2ccc(N3CCOCC3)cc2)C(=O)O1 | 4 µg/mL (≈ 12.5 µM) | 1 µg/mL (≈ 3.13 µM) |  | 2 µg/mL (≈ 6.26 µM) | 4 µg/mL (≈ 12.5 µM) | 4 µg/mL (≈ 12.5 µM) | 4 µg/mL (≈ 12.5 µM) |  |  |  |  | 
6 | CC(=O)NC[C@H]1CN(c2ccc(N3CCOCC3)c(F)c2)C(=O)O1 [LINEZOLID] |  |  |  | 1 µg/mL (≈ 2.96 µM) |  |  | 4 µg/mL (≈ 11.9 µM) | 2 mg/kg |  |  |  | 
7 | CC(=O)NC[C@@H]1OC(=O)N2c3ccc(C(C)=O)cc3C[C@@H]12 | 8 µg/mL (≈ 27.7 µM) |  |  | 8 µg/mL (≈ 27.7 µM) |  | 16 µg/mL (≈ 55.5 µM) |  | 39.5 mg/kg |  |  |  | 
8 | CC(=O)NC[C@@H]1OC(=O)N2c3ccc(-c4ccccc4)cc3C[C@@H]12 |  |  |  | 2 µg/mL (≈ 6.2 µM) |  | 4 µg/mL (≈ 12.4 µM) | 32 µg/mL (≈ 99.3 µM) |  |  |  | > 25 mg/kg | 
9 | CC(=O)NC[C@@H]1OC(=O)N2c3ccc(-c4cncnc4)cc3C[C@@H]12 | 8 µg/mL (≈ 24.7 µM) |  |  | 4 µg/mL (≈ 12.3 µM) | 4 µg/mL (≈ 12.3 µM) | 4 µg/mL (≈ 12.3 µM) | 8 µg/mL (≈ 24.7 µM) | 11.4 mg/kg |  |  |  | 
10 | CC(=O)NC[C@@H]1OC(=O)N2c3ccc(-c4ccncc4)cc3C[C@@H]12 |  |  |  |  |  | 2 µg/mL (≈ 6.19 µM) | 8 µg/mL (≈ 24.7 µM) |  | 16.5 mg/kg | 6.1 mg/kg |  | 
11 | CC(=O)NC[C@@H]1OC(=O)N2c3ccc(-c4ccc(C#N)cc4)cc3C[C@@H]12 | 4 µg/mL (≈ 11.5 µM) | 2 µg/mL (≈ 5.76 µM) |  | 2 µg/mL (≈ 5.76 µM) | 4 µg/mL (≈ 11.5 µM) | 2 µg/mL (≈ 5.76 µM) | 32 µg/mL (≈ 92.1 µM) | 17.1 mg/kg |  |  |  | 
12 | CN[C@H](CC(C)C)C(=O)N[C@H]1C(=O)N[C@@H](CC(N)=O)C(=O)N[C@H]2C(=O)N[C@H]3C(=O)N[C@H](C(=O)N[C@H](C(=O)O)c4cc(O)cc(O)c4-c4cc3ccc4O)[C@H](O)c3ccc(c(Cl)c3)Oc3cc2cc(c3O[C@@H]2O[C@H](CO)[C@@H](O)[C@H](O)[C@H]2O[C@H]2C[C@](C)(N)[C@H](O)[C@H](C)O2)Oc2ccc(cc2Cl)[C@H]1O [VANCOMYCIN] |  | 0.5 µg/mL (≈ 0.345 µM) |  | 0.5 µg/mL (≈ 0.345 µM) |  | 4 µg/mL (≈ 2.76 µM) | > 16 µg/mL | 1.1 mg/kg |  |  |  | 
13 | CC(=O)NC[C@@H]1OC(=O)N2c3ccc(-c4cccnc4)cc3CC[C@@H]12 | 32 µg/mL (≈ 94.8 µM) | 16 µg/mL (≈ 47.4 µM) |  | 16 µg/mL (≈ 47.4 µM) | 16 µg/mL (≈ 47.4 µM) | 32 µg/mL (≈ 94.8 µM) | > 32 µg/mL |  |  |  |  | 
14 | CC(=O)NC[C@@H]1OC(=O)N2c3ccc(S(=O)(=O)NCc4ccccc4)cc3C[C@@H]12 | > 64 µg/mL | > 64 µg/mL |  | > 64 µg/mL | > 64 µg/mL | > 64 µg/mL | > 32 µg/mL |  |  |  |  | 

Now from value to compound, other results behind:

Row | MIC (Staphylococcus aureus [1]) | MIC (Streptococcus pneumoniae) | MIC (Bacteroides fragilis [2]) | MIC [3] | MIC (Staphylococcus aureus [4]) | MIC (Enterococcus faecalis) | MIC (Bacteroides fragilis [7]) | SMILES | ED50 (Mus musculus [5]) | ED50 (Staphylococcus aureus [6]) | ED50 (Staphylococcus aureus [8]) | EC50 (Mus musculus [9]) | ED50 (Mus musculus [10])
15 | > 32 µg/mL | > 32 µg/mL | > 32 µg/mL | > 32 µg/mL | > 32 µg/mL | > 32 µg/mL |  | CC(=O)NC[C@@H]1OC(=O)N2c3ccccc3C[C@H]12 |  |  |  |  | 
16 | > 16 µg/mL | > 16 µg/mL |  | > 16 µg/mL | > 16 µg/mL | > 16 µg/mL | > 16 µg/mL | CC(=O)NC[C@@H]1OC(=O)N2c3ccc(C(C)=O)cc3CC[C@H]12 |  |  |  |  | 
17 | > 64 µg/mL | > 64 µg/mL |  | > 64 µg/mL | > 64 µg/mL | > 64 µg/mL | > 32 µg/mL | CC(=O)NC[C@@H]1OC(=O)N2c3ccc(S(=O)(=O)N4CCOCC4)cc3C[C@@H]12 |  |  |  |  | 
18 | > 64 µg/mL | > 64 µg/mL |  | > 64 µg/mL | > 64 µg/mL | > 64 µg/mL | > 32 µg/mL | CC(=O)NC[C@@H]1OC(=O)N2c3ccc(S(=O)(=O)Nc4ccccc4)cc3C[C@@H]12 |  |  |  |  | 
19 | > 16 µg/mL | > 16 µg/mL |  | > 16 µg/mL | > 16 µg/mL | > 16 µg/mL | > 16 µg/mL | CC(=O)NC[C@@H]1OC(=O)N2c3ccc(C(C)=O)cc3C[C@H]12 |  |  |  |  | 
20 | > 32 µg/mL | > 32 µg/mL |  | > 32 µg/mL | > 32 µg/mL | > 32 µg/mL | > 32 µg/mL | CC(=O)NC[C@@H]1OC(=O)N2c3ccccc3C[C@@H]12 |  |  |  |  | 
21 | > 16 µg/mL | > 16 µg/mL |  | > 16 µg/mL | > 16 µg/mL | > 16 µg/mL | > 16 µg/mL | CC(=O)NC[C@@H]1OC(=O)N2c3ccc(C(C)=O)cc3CC[C@@H]12 |  |  |  |  | 
22 | 4 µg/mL (≈ 13.9 µM) | 4 µg/mL (≈ 13.9 µM) |  | 2 µg/mL (≈ 6.94 µM) | 4 µg/mL (≈ 13.9 µM) | 4 µg/mL (≈ 13.9 µM) | 4 µg/mL (≈ 13.9 µM) | CC(=O)NCC1OC(=O)N2c3ccc(C(C)=O)cc3CC12 (single isomer, unassigned; (+)) |  |  |  |  | 
23 | > 64 µg/mL | > 64 µg/mL |  | > 64 µg/mL | > 64 µg/mL | > 64 µg/mL | > 32 µg/mL | CC(=O)NC[C@@H]1OC(=O)N2c3ccccc3CC[C@H]12 |  |  |  |  | 
24 | > 64 µg/mL | > 64 µg/mL |  | > 64 µg/mL | > 64 µg/mL | > 64 µg/mL | > 32 µg/mL | CC(=O)NC[C@@H]1OC(=O)N2c3ccccc3CC[C@@H]12 |  |  |  |  | 
25 | > 64 µg/mL | > 64 µg/mL |  | > 64 µg/mL | > 64 µg/mL | > 64 µg/mL | > 32 µg/mL | CCNS(=O)(=O)c1ccc2c(c1)C[C@H]1[C@H](CNC(C)=O)OC(=O)N21 |  |  |  |  | 
26 | > 64 µg/mL | > 64 µg/mL |  | > 64 µg/mL | > 64 µg/mL | > 64 µg/mL | > 32 µg/mL | CC(=O)NC[C@@H]1OC(=O)N2c3ccc(S(=O)(=O)N(C)CCCO)cc3C[C@@H]12 |  |  |  |  | 
27 | > 64 µg/mL | > 64 µg/mL |  | > 64 µg/mL | > 64 µg/mL | > 64 µg/mL | > 32 µg/mL | CC(=O)NC[C@@H]1OC(=O)N2c3ccc(S(N)(=O)=O)cc3C[C@@H]12 |  |  |  |  | 
28 | 64 µg/mL (≈ 197 µM) | 16 µg/mL (≈ 49.3 µM) |  | 64 µg/mL (≈ 197 µM) | 32 µg/mL (≈ 98.7 µM) | 64 µg/mL (≈ 197 µM) | > 32 µg/mL | CC(=O)NC[C@@H]1OC(=O)N2c3ccc(S(C)(=O)=O)cc3C[C@@H]12 |  |  |  |  | 
29 | > 64 µg/mL | > 64 µg/mL |  | > 64 µg/mL | > 64 µg/mL | > 64 µg/mL | > 32 µg/mL | CC(=O)NC[C@@H]1OC(=O)N2c3ccc(S(=O)(=O)N4CCCCC4)cc3C[C@@H]12 |  |  |  |  | 
30 | 64 µg/mL (≈ 193 µM) | 32 µg/mL (≈ 96.6 µM) |  | 32 µg/mL (≈ 96.6 µM) | 64 µg/mL (≈ 193 µM) | 128 µg/mL (≈ 386 µM) | > 16 µg/mL | CC(=O)NC[C@@H]1OC(=O)N2c3ccc(N4CCOCC4)cc3C[C@@H]12 |  |  |  |  | > 20 mg/kg
31 | 64 µg/mL (≈ 181 µM) | 64 µg/mL (≈ 181 µM) |  | 64 µg/mL (≈ 181 µM) | 64 µg/mL (≈ 181 µM) | > 64 µg/mL | > 32 µg/mL | CC(=O)NC[C@@H]1OC(=O)N2c3ccc(S(=O)(=O)N(C)C)cc3C[C@@H]12 |  |  |  |  | 
32 | > 64 µg/mL | > 64 µg/mL |  | > 64 µg/mL | > 64 µg/mL | > 64 µg/mL | > 32 µg/mL | CC(=O)NC[C@@H]1OC(=O)N2c3ccc(S(=O)(=O)NC4CCCC4)cc3C[C@@H]12 |  |  |  |  | 
